Columns and labels:
ER = target: T1, ER (Homo sapiens, UniProt P03372); assay: ER reporter gene assay; type: cell-based; conditions: for Reporter Assay (% Activity) ER / inhibition of ER transactivation (in words): 10 μM compound; for Reporter Assay (% Activity) ER: 5 nM estradiol, 24 h, % of maximal luciferase activity (100%)
T1 sequence (P03372 1-595): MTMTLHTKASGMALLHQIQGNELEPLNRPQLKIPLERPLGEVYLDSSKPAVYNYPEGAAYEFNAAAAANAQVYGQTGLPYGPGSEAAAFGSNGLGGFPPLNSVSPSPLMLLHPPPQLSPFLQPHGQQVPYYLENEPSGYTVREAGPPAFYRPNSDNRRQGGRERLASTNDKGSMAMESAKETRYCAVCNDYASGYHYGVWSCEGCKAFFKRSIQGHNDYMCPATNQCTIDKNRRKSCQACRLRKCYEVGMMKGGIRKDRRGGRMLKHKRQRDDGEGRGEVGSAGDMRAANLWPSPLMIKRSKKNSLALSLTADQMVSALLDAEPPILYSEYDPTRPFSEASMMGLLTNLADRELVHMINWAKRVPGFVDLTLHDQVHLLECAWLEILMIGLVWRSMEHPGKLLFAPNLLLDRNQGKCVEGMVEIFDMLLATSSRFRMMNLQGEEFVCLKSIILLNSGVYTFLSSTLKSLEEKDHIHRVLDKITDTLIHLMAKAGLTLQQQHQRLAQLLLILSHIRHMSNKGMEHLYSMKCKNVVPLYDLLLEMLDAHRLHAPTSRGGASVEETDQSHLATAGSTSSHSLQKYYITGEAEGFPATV

pS2 mRNA = assay: qRT-PCR of 17β-estradiol-induced pS2 mRNA; type: cell-based; conditions: 2 hours; compound 51 at 5 μM
PR = target: T2, PR (Homo sapiens, UniProt P06401); assay: PR reporter gene assay; type: cell-based; conditions: for inhibition of PR transactivation (in words): 10 μM compound
T2 sequence (P06401 165-933 limits assumed): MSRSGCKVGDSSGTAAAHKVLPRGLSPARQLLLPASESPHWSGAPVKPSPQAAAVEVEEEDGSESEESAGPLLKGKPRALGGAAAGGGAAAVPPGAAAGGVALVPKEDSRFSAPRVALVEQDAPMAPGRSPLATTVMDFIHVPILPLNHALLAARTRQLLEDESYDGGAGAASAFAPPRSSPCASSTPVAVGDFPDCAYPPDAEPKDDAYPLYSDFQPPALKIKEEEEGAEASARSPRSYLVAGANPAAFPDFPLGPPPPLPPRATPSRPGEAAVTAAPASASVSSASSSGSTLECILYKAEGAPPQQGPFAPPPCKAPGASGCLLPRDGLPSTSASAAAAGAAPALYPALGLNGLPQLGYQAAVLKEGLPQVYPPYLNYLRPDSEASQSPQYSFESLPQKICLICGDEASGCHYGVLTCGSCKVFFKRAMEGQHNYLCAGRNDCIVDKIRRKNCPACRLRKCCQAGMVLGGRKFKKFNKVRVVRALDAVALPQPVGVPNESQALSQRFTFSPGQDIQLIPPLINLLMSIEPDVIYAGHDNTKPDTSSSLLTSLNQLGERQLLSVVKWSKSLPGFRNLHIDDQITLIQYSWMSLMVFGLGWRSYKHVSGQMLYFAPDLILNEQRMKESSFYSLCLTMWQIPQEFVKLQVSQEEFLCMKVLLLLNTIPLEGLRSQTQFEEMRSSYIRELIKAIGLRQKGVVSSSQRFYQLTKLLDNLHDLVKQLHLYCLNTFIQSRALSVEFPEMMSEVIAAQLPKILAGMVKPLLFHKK

AR = target: T3, AR (Homo sapiens, UniProt P10275); assay: AR reporter gene assay; type: cell-based; conditions: 10 μM compound
T3 sequence (P10275 1-920): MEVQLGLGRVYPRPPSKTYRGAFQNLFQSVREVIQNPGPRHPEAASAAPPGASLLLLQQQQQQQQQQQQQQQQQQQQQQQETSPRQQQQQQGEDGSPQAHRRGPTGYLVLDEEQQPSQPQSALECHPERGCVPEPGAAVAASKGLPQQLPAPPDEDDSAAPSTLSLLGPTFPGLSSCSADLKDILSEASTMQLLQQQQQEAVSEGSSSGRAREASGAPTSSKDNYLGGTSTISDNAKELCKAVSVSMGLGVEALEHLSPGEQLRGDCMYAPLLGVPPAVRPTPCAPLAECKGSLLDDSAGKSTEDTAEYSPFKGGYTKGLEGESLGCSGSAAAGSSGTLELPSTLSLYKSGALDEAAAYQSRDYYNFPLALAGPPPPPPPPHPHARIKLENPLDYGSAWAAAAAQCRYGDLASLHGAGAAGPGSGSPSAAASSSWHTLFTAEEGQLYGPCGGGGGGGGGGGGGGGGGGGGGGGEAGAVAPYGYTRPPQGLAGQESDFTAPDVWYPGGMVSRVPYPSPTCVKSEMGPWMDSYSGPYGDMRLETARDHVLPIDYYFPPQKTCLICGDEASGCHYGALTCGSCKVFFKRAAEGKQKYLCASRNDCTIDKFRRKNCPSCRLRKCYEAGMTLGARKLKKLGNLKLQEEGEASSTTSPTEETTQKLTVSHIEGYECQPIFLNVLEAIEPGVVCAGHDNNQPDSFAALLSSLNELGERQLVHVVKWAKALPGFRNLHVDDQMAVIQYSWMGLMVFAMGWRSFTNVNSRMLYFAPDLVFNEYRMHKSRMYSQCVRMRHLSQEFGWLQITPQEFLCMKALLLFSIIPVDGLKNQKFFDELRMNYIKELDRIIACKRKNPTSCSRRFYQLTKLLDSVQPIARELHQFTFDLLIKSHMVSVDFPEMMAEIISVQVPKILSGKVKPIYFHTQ

GR = target: T4, GR (Rattus norvegicus, UniProt P06536); assay: GR reporter gene assay; type: cell-based, human; conditions: 10 μM compound
T4 sequence (P06536 1-795): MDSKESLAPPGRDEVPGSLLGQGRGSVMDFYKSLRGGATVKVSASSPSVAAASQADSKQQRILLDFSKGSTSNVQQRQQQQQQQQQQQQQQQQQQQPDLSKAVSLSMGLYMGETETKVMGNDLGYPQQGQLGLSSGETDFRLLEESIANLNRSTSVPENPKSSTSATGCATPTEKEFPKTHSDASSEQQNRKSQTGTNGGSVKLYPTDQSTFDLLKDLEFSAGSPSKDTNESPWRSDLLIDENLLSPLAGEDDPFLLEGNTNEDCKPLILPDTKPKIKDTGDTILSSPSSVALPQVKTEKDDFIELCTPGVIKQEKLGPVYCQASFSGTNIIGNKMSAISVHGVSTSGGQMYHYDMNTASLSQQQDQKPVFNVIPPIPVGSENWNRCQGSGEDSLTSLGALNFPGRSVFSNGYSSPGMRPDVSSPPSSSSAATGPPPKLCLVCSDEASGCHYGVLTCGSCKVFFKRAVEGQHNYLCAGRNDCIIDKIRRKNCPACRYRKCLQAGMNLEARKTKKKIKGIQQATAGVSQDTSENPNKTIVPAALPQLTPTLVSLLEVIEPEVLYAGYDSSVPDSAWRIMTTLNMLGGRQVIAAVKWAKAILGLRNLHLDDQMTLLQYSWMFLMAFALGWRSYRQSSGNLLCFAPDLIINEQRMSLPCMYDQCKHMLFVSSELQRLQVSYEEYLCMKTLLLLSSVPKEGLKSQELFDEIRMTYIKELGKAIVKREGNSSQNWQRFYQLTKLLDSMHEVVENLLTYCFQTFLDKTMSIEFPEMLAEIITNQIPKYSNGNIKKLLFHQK

Row | Compound | Reporter Assay (% Activity) ER (ER) [%] | also measured
1 | CSc1nc2c([nH]1)c(=O)n(C)c(=O)n2C [Compound 10] | 6 | –
2 | CCCCc1nc2c([nH]1)c(=O)n(C)c(=O)n2C [Compound 3] | 88 | –
3 | C[C@]12CC[C@@H]3c4ccc(O)cc4C[C@@H](CCCCCCCCC[S+]([O-])CCCC(F)(F)C(F)(F)F)[C@H]3[C@@H]1CC[C@@H]2O (stereo partly shown) [ICI 182,780, reference compound] | – | effect on 17β-estradiol induction of pS2 mRNA (pS2 mRNA): inhibited induction of pS2 mRNA
4 | CCc1nc2c([nH]1)c(=O)n(C)c(=O)n2C [Compound 2] | 106 | –
5 | Cn1c(=O)c2[nH]cnc2n(C)c1=O [Compound 1, Theophylline, reference compound] | – | inhibition of ER transactivation (in words) (ER): did not inhibit; activity at 10 µM (ER; read-out: Reporter Assay (% Activity) ER): 93%; inhibition of PR transactivation (in words) (PR): did not inhibit; activity at 10 µM (PR; T47D, read-out: Reporter Assay (% Activity) PR): 105%
6 | CCCSc1nc2c([nH]1)c(=O)n(C)c(=O)n2C [Compound 7] | 111 | –
7 | CCCSc1nc2c([nH]1)c(=S)n(C)c(=S)n2C [Compound 19] | 79 | –
8 | Cn1c(=O)c2[nH]c(SCc3ccccc3)nc2n(C)c1=O [Compound 8] | 104 | –
9 | CCCCCCCCCCSc1nc2c([nH]1)c(=O)n(C)c(=O)n2C [Compound 37] | 109 | –
10 | Cn1c(=O)c2[nH]c(Cc3ccccc3)nc2n(C)c1=O [Compound 4] | 94 | –
11 | CSc1nc2c([nH]1)c(=S)n(C)c(=S)n2C [Compound 13] | 101 | –
12 | CCCC(C)Sc1nc2c([nH]1)c(=S)n(C)c(=O)n2C (stereo not shown) [Compound 45] | 94 | inhibition of ER transactivation (in words) (ER): no activity; inhibition of AR transactivation (in words) (AR): no activity; inhibition of PR transactivation (in words) (PR): moderately potent inhibitors; inhibition of GR transactivation (in words) (GR): no activity

Source: publication PMC3384716 (Steroids, 2012)
